Measurements from US9138421B2, “Platinum compounds for treating cell proliferative diseases, preparation method and use thereof” (priority 2011, dated 2015).

Experiments:
[1] = tested on: lung cancer Lewis cell line; test: In vivo antitumor activity, lung cancer Lewis in nude mice; conditions: 15 mg/kg, every 2 days, 4 times, end 30 days after inoculation
gastric cancer MGC803 = test: MTT cytotoxicity, gastric cancer MGC803; format: cell-based; conditions: n = 6
Description: (§1) The toxic action of Embodiment platinum containing compounds was observed on tumor cells by MTT colorimetric method. Several kinds of tumor cells in exponential growth phase were prepared into single cell suspension, inoculated on 96 pore plat at the density of 4×10^4/hole, cultivated for 24 hours to enable to adhere to wall with 1640 culture medium containing 10% fetal calf serum (complete medium) at 37° C.; the final culture volume was 100 μl. Cell morphology was observed after culture for 24 hours.

testis cell ST = test: MTT cytotoxicity, testis cell ST; format: cell-based; conditions: n = 6
Description: as §1

lung cancer H292 = test: MTT cytotoxicity, lung cancer H292; format: cell-based; conditions: n = 6
Description: as §1

esophagus cancer ECA109 = test: MTT cytotoxicity, esophagus cancer ECA109; format: cell-based; conditions: n = 6
Description: as §1

[2] = tested on: Pulmonary epithelial cell BEAS-2B; test: MTT cytotoxicity, pulmonary epithelial cell BEAS-2B; format: cell-based; conditions: n = 6
Description: as §1

lung cancer Lewis = test: MTT cytotoxicity, lung cancer Lewis; format: cell-based; conditions: n = 6
Description: as §1

colon cancer SW480 = test: MTT cytotoxicity, colon cancer SW480; format: cell-based; conditions: n = 6
Description: as §1

[3] = tested on: colon cancer SW480 cell line; test: In vivo antitumor activity, colon cancer SW480 in nude mice (1); conditions: SW480, 4 mg/kg, every other day, 4 times, tumor weighed after 10 days
From the text: The calculation formula of tumor inhabitation rate is: […]

normal mice = test: Acute toxic effect of platinum complex on normal mice (LD50); format: in vivo, Kunming mice; conditions: single intravenous administration in 5% glucose, 14 days observation, Bliss method
Description: Test 1: Acute Toxic Effect of Platinum Complex on Normal Mice
Embodiment platinum compound was dissolved with 5% glucose solution. […] Mortality and toxicity were observed after administration.

Solubility in water = conditions: in water
[4] = tested on: colon cancer SW480 cell line; test: In vivo antitumor activity, colon cancer SW480 in nude mice (2), dose series; conditions: 3 days, tumor weighed 24 hours after drug discontinuance

Molecule | tumor inhibition rate (%) [1] [%] | IC50 (gastric cancer MGC803) [µM] | IC50 (testis cell ST) [µM] | IC50 (lung cancer H292) [µM] | IC50 (esophagus cancer ECA109) [µM] | IC50 [2] [µM] | IC50 (lung cancer Lewis) [µM] | IC50 (colon cancer SW480) [µM] | tumor inhibition rate (%) (x ±SD) [3] | LD50 value (normal mice) [mmol/kg] | solubility (Solubility in water) [mg/mL] | tumor inhibition rate (%) (x ±SD) ([4]; SW480, 3 mg/kg) | tumor inhibition rate (%) (x ±SD) ([4]; SW480, 5 mg/kg) | tumor inhibition rate (%) (x ±SD) ([4]; SW480, 10 mg/kg) | tumor inhibition rate (%) (x ±SD) ([4]; SW480, 15 mg/kg)
2-(2-diethylamine ethyl)-malonic.cis-1,4-(trans-2,3-cyclobutyl)-butanediamine platinum (II) phosphate [compound 26] | 72.4 ± 16.78 | 234 | 312 | 136 | 163 |  |  |  |  |  |  |  |  |  | 
CCCN(CCC)CCC1C(=O)[O][Pt]([NH2])([NH2])[O]C1=O.O=P(O)(O)O [compound 7, 2-(2-di-n-propylamineethyl)-malonic-cis-diamino platinum (II) phosphate] |  |  |  | 124 |  | 75 | 128 | 51 | 28.5 ± 7.65 |  |  |  |  |  | 
CCN(CC)CCC1C(=O)[O][Pt]2([NH]C3CCC(CC3)[NH]2)[O]C1=O.O=P(O)(O)O (stereo not drawn) [compound 27, [2-(2-diethylamine ethyl)-malonato].[cis-1,4-cyclohexyldiamine] platinum (II) phosphate] | 71.3 ± 10.54 | 453 | 360 | 158 | 350 |  |  |  |  | 0.729 | 145 |  |  |  | 
[2-(2-diethylamine ethyl)-malonato].[cis-1,3-(2,2-(4-oxacyclohexyl))-propyldiamine]platinum (II) phosphate [compound 28] | 73.3 ± 17.92 | 162 | 138 | 99 | 256 |  |  |  |  | 0.767 |  |  |  |  | 
[2-(2-dimethylamine ethyl)-malonato].[cis-trans-1,2-diaminomethylcyclobutane]platinum (II) phosphate [compound 25] | 80.1 ± 9.65 | 341 | 114 | 53 | 196 |  |  |  |  | 0.520 |  |  |  |  | 
[2-(3-di-n-propylamine propyl)-malonato].[cis-diamine] platinum (II) mesylate [compound 8] |  |  |  | 201 |  | 49 | 57 | 20 | 29.7 ± 8.81 | 0.806 |  | 40.4 ± 5.02 | 73.6 ± 9.18 | 74.4 ± 12.25 | 82.8 ± 10.07
